Results from publication PMC8065212, “The active form of the influenza cap-snatching endonuclease inhibitor baloxavir marboxil is a tight binding inhibitor” (The Journal of Biological Chemistry, 2021).
Where “and” joins values, the source holds several entries; their conditions need not be identical. Equal entries are not always repeated. Entries after “also recorded” stand apart in the source; their conditions may differ. Where two headings read alike, the source gives them in different places.

What was measured:
[1] = tested on: FluB-ht WT; assay type: biochemical; conditions: 75 nM BXA
[2] = molecular target: FluB-ht WT (recombinant influenza B heterotrimeric PA/PB1/PB2 polymerase, PA endonuclease) (Influenza B virus, UniProt Q5V8Z9); test: biochemical
[3] = tested on: FluB-ht; test: Michaelis-Menten kinetics of BXA inhibition; assay type: biochemical, Influenza B; conditions: 25 nM FluB-ht, substrate as indicated
From the text: Supplementary Figure S4. Michaelis-Menten kinetics of BXA inhibition. (A) Scheme detailing the experimental setup and representative data showing the effect of BXA on substrate utilization by FluB-ht. (B) Graphic representation and analysis of the data presented in panel A are shown on the left-hand side graph. The effects of increasing concentrations of BXA on kcat and Km are illustrated on the right-hand side graph. Data represents the average of two independent experiments. The final reaction conditions were as follows: 30 mM Tris-HCL pH 7.5, 25 mM NaCl, 5 mM MgCl2, 25 nM FluB-ht, 1.7 µM vRNA, 5% DMSO, BXA as indicated and 20-nt capped substrate as indicated. The indicated substrate concentrations were achieved by mixing 0.1 µM 20-nt radiolabeled capped substrate RNA with increasing amounts of unlabeled substrate. […] The data point at 2.1 µM was therefore not considered for kcat and Km measurements. […] Tight binding of enzyme and inhibitor depletes the concentration of free enzyme and the steady-state assumption is no longer valid.

[4] = tested on: FluB-ht WT; assay type: biochemical; conditions: 75 nM BXA, 55 nM FluB-ht WT
[5] = tested on: cap-snatching endonuclease (PA); conditions: enzyme concentration not indicated; cited from earlier work
[6] = tested on: influenza; conditions: single dose, postexposure prophylaxis; placebo group 13.6%; cited from earlier work
[7] = tested on: influenza virus; conditions: cited from earlier work
[8] = tested on: influenza infection; conditions: cited from earlier work

Compound: O=C1c2c(O)c(=O)ccn2N([C@@H]2c3ccccc3SCc3c2ccc(F)c3F)[C@@H]2COCCN12 [BXA, baloxavir acid]
- inhibition of endonuclease activity by order of addition ([1]; 55 nM FluB-ht WT, 1 hour preincubation): inhibition was only observed under conditions where an E:I:Mg^2+ complex was preformed; also recorded: Preincubation E, I, and MgCl2 is required for inhibition
- nuclease activity over longer periods of time after preformed E:I:Mg2+ complex ([1]; up to 120 min): negligible
- IC50 [2]: 112 nM
- Ki [2]: 12 nM
- dependence of IC50 on substrate concentration ([2]; 100, 300 and 500 nM 20-nt substrate, 55 nM FluB-ht WT (Fig. S1)): independent within a narrow range of substrate concentrations
- slope of plot of IC50 versus enzyme concentration ([2]; WT): 0.56 and ~0.5
- effects of increasing concentrations of BXA on kcat and Km [3]: reduction in kcat and constant Km values
- preincubation time for maximal inhibition [4]: ~30 min
- IC50 [5]: ~2 nM

Compound: COC(=O)OCOc1c2n(ccc1=O)N([C@@H]1c3ccccc3SCc3c1ccc(F)c3F)[C@@H]1COCCN1C2=O [BXM, Baloxavir marboxil]
- household transmissions [6]: 1.9%
- EC50 [7]: low nanomolar range
- reduction in time until symptom resolution ([8]; human, in vivo): 20–25%

Compound: CCOC(=O)C1=C[C@@H](OC(CC)CC)[C@H](NC(C)=O)[C@@H](N)C1 [oseltamivir]
- reduction in time until symptom resolution [8]: 20–25%
